Data taken from EP0073715A1, “Brominated compounds for use in opacifying products” (Société dite: GUERBET S.A., priority 1981, dated 1983).

Experiment: Protein binding (Brodersen technique)
Conditions: weaker interaction means better tolerance, read-out: Liaison protéique (converted)
Text: Plus cette interaction est faible et meilleure est la tolérance.

SMILES: O=C(CCCCC(=O)Nc1c(I)cc(I)c(C(=O)O)c1I)Nc1c(I)cc(I)c(C(=O)O)c1I [Adipiodone de méthylglucamine]
- Kd: 78.1 µM
